Reference: PMC7319089, “Multi-Component Comparative Pharmacokinetics in Rats After Oral Administration of Fructus aurantii Extract, Naringin, Neohesperidin, and Naringin-Neohesperidin” (Frontiers in Pharmacology, 2020)
Read-outs that look alike come from different tables or passages of the source.

Experiments:
[1] = Pharmacokinetics in SD rats after oral administration of FA extract, NA, NHE or NA-NHE (UPLC-MS/MS of plasma, DAS 3.1); type: in vivo, Sprague-Dawley (SD) rats; conditions: for MRT last: read-out: MRT(0-t); for MRT inf: read-out: MRT(0-∞); for Vd/F: read-out: Vz/F; for Cmax: plasma after β-glucuronidase/sulfatase hydrolysis; for AUC(0-t): read-out: AUC(0-t); for Shape of the plasma concentration-time profile: rats, oral administration, naringin and neohesperidin determined as naringenin and hesperetin
Method: The 20 μl of β-glucuronidase and 15 μl of sulfatase were added into 50 μl of plasma sample. After vortexed for 30 s, the mixture was incubated at 37°C for 2 h in a water bath, then placed in ice water for 5 min to terminate the reaction ([Xu et al., 2019]). IS solution (20 µl, 5 μg/ml) and acetonitrile (1.0 ml) were added into the mixture and vortexed for 2 min. […] Rats were randomly divided into the following four groups (6 rats in each group): naringin (NA), neohesperidin (NHE), naringin-neohesperidin (NA-NHE), and FA extract group. The oral administration doses were selected according to the literatures ([Tong et al., 2012]; [Yang et al., 2012]; [Committee of National Pharmacopoeia of RP China, 2015]; [Wang et al., 2018]; [Zhang et al., 2018]; [Chen et al., 2019]), the contents of the five components in FA, and the preliminary experiments. The specific doses were as follows: […] The rats had free access to water during the experiment. The blood samples were then immediately centrifuged at 4,000 rpm for 10 min. The plasma was frozen and stored at −80°C until analysis. The plasma concentration of the studied compounds was determined according to the daily calibration curve.

[2] = Stability of the analytes in rat plasma (QC samples); type: in vitro ADME; conditions: n = 6; for Long-term Stability RE: -20 °C for one month; for Short-term Stability RE: room temperature 24 h; for Free–thaw Stability RE: three cycles -20 °C/room temperature
Method: The QC samples were assayed under several different conditions to evaluate the stability of the compounds in rat plasma. For the short-term stability, fresh plasma samples were kept at room temperature for 24 h before the sample preparation. After keeping the samples at room temperature for 24 h, post-preparation stability was tested. Freeze-thaw cycles (-20 °C/room temperature) stability were […] treated at -20°C for freezing-room temperature melting three times (repeated freezing and thawing three times). In each freeze-thaw cycle, the samples were frozen and stored at -20 °C for 24 h, and subsequently thawed at room. To evaluate the long-term stability of QC plasma samples, following storage at -20 °C for one month. The stability data were acceptable when the bias was within ±15% of the actual value ([Yuan et al., 2017]).

[3] = Sprague-Dawley, rat, plasma, male SD rats, oral FA extract 10.8 g/kg of the original medicinal material, statistical moment parameters, n = 6
[4] = Sprague-Dawley, rat, male SD rats, oral FA extract 10.8 g/kg of the original medicinal material, statistical moment parameters, n = 6
[5] = male SD rats, oral FA extract 10.8 g/kg of the original medicinal material, two-compartment model parameters, n = 6
[6] = male, Sprague-Dawley, rat, plasma, po, 10.8 g/kg, male SD rats, oral FA extract 10.8 g/kg of the original medicinal material, statistical moment parameters, n = 6
[7] = male, Sprague-Dawley, rat, plasma, po, 10.8 g/kg, male SD rats, oral FA extract 10.8 g/kg of the original medicinal material, statistical moment parameters, n = 6, read-out: CLz/F (converted)
[8] = male, Sprague-Dawley, rat, plasma, po, 10.8 g/kg, male SD rats, oral FA extract 10.8 g/kg of the original medicinal material, statistical moment parameters, n = 6, read-out: Tmax
[9] = male, Sprague-Dawley, rat, plasma, po, 10.8 g/kg, male SD rats, oral FA extract 10.8 g/kg of the original medicinal material, statistical moment parameters, n = 6, read-out: t1/2z (converted)
[10] = male, Sprague-Dawley, rat, plasma, po, 10.8 g/kg, male SD rats, oral FA extract 10.8 g/kg of the original medicinal material, two-compartment model parameters, n = 6
[11] = male, Sprague-Dawley, rat, plasma, po, 10.8 g/kg, male SD rats, oral FA extract 10.8 g/kg of the original medicinal material, two-compartment model parameters, n = 6, read-out: CL/F (converted)
[12] = male, Sprague-Dawley, rat, plasma, po, 10.8 g/kg, male SD rats, oral FA extract 10.8 g/kg of the original medicinal material, two-compartment model parameters, n = 6, read-out: t1/2β (converted)
[13] = high QC concentration (3880 / 2946 / 2470 / 836 / 422.4 ng/mL)
[14] = low QC concentration (3.88 / 2.946 / 2.47 / 0.836 / 0.4224 ng/mL)
[15] = middle QC concentration (77.6 / 58.92 / 49.4 / 16.72 / 8.44 ng/mL)
[16] = male SD rats, oral FA extract 10.8 g/kg of the original medicinal material, statistical moment parameters, n = 6

| Structure (SMILES) | MRT last [1, 3] | MRT inf [1, 3] | Vd/F [1, 3] | Cmax [1, 4] | Ka [1, 5] | V1/F [1, 5] | t1/2α [1, 5] | AUC(0-inf) [1, 6] | AUC(0-t) [1, 6] | CL/F [1, 7] | Tmax [1, 8] | half-life [1, 9] | AUC(0-inf) [1, 10] | AUC(0-t) [1, 10] | CL/F [1, 11] | half-life [1, 12] | Long-term Stability RE [2, 13] | Long-term Stability RE [2, 14] | Long-term Stability RE [2, 15] | Short-term Stability RE [2, 13] | also measured |
| --- | --- | --- | --- | --- | --- | --- | --- | --- | --- | --- | --- | --- | --- | --- | --- | --- | --- | --- | --- | --- | --- |
| COc1ccc([C@@H]2CC(=O)c3c(O)cc(O)cc3O2)cc1O [Hesperetin, hesperetin] | 11.4 ± 0.37 h | 11.7 ± 0.42 h | 12.2 ± 1.67 L/kg | 425 ± 11.1 ng/mL | 3.17 ± 0.93 h⁻¹ | 7.17 ± 1.40 L/kg | 3.47 ± 0.51 h | 4340 ± 326 ng·h/mL | 4300 ± 315 ng·h/mL | 41.7 mL/min/kg | 9.67 ± 0.82 h | 3.4 ± 0.46 h | 4420 ± 724 ng·h/mL | 4350 ± 705 ng·h/mL | 68.2 mL/min/kg | 3.86 ± 0.32 h | -7.81% | 5.03% | -8.58% | -13.50% | Shape of the plasma concentration-time profile [1]: double peaks; Short-term Stability RE [2, 14]: 4.10%; Short-term Stability RE [2, 15]: -9.20%; Free–thaw Stability RE [2, 13]: -12.68%; Free–thaw Stability RE [2, 14]: 7.78%; Free–thaw Stability RE [2, 15]: -10.70% |
| COc1ccc2ccc(=O)oc2c1CC(O)C(C)(C)O (centres unmarked) [Meranzin hydrate, meranzin hydrate] | 5.17 ± 0.34 h | 6.57 ± 0.95 h | 9.36 ± 3.56 L/kg | 3360 ± 91 ng/mL | 2.05 ± 0.46 h⁻¹ | 4.30 ± 1.14 L/kg | 6.61 ± 0.86 h | 11600 ± 2760 ng·h/mL | 11100 ± 2820 ng·h/mL | 16.2 mL/min/kg | ~1 h | > 6.5 h | 12300 ± 2590 ng·h/mL | 12100 ± 2760 ng·h/mL | 7.5 mL/min/kg | 6.91 ± 1.05 h | 6.85% | 7.62% | 3.19% | 7.43% | Short-term Stability RE [2, 14]: 4.71%; Short-term Stability RE [2, 15]: 1.55%; Free–thaw Stability RE [2, 13]: 7.63%; Free–thaw Stability RE [2, 14]: 5.77%; Free–thaw Stability RE [2, 15]: 0.71% |
| COc1ccc2ccc(=O)oc2c1CC1OC1(C)C (centres unmarked) [Meranzin, meranzin] | 4.82 ± 0.76 h | 6.39 ± 2.22 h | 477 ± 70.2 L/kg | 27.7 ± 2.85 ng/mL | 2.18 ± 0.97 h⁻¹ | 5.91 ± 1.12 L/kg | 6.39 ± 0.11 h | 80.4 ± 15.5 ng·h/mL | 76.9 ± 14.7 ng·h/mL | 2310 mL/min/kg | ~1 h | > 6.5 h | 87.8 ± 22.9 ng·h/mL | 84.4 ± 22.5 ng·h/mL | 1200 mL/min/kg | 6.48 ± 0.38 h | -7.37% | -10.98% | -13.52% | -2.81% | Tmax [1, 16]: 0.92 ± 0.13 h; t1/2z [1, 16]: 6.52 ± 0.63 h; Short-term Stability RE [2, 14]: -6.25%; Short-term Stability RE [2, 15]: -8.40%; Free–thaw Stability RE [2, 13]: -6.01%; Free–thaw Stability RE [2, 14]: -9.71%; Free–thaw Stability RE [2, 15]: 11.07% |
| O=C1C[C@@H](c2ccc(O)cc2)Oc2cc(O)cc(O)c21 [Naringenin, naringenin] | 9.71 ± 0.56 h | 9.75 ± 0.56 h | 2.06 ± 0.29 L/kg | 2450 ± 226 ng/mL | 1.94 ± 0.37 h⁻¹ | 0.82 ± 0.06 L/kg | 2.63 ± 0.39 h | 19700 ± 2630 ng·h/mL | 19600 ± 2620 ng·h/mL | 9.33 mL/min/kg | 9.33 ± 1.03 h | 2.56 ± 0.17 h | 20900 ± 3010 ng·h/mL | 20700 ± 3010 ng·h/mL | 13.8 mL/min/kg | 2.65 ± 0.18 h | -9.76% | -0.84% | 12.09% | -13.49% | Shape of the plasma concentration-time profile [1]: double peaks; Short-term Stability RE [2, 14]: -3.02%; Short-term Stability RE [2, 15]: 14.81%; Free–thaw Stability RE [2, 13]: -10.94%; Free–thaw Stability RE [2, 14]: -4.36%; Free–thaw Stability RE [2, 15]: 8.14% |
